Source: patent US20240261245A1, “METHODS OF TREATING CANCERS HAVING A DEREGULATED NRF2/KEAP1 PATHWAY” (New York University, priority 2017, published 2024)
Where a name gives a salt, the structure may show the parent alone. Read-outs that look alike come from different tables or passages of the source. Blank lines part the entries; values can stand above or below the molecule they belong to.

Experiments:
[1] = test system: KP, KPN and KPK cell lines; test: Viability of isogenic cell line panel treated with oxidative stress inducers (cell-titer glo); assay type: cell-based, mouse; details: 72 hours of drug treatment
Experimental: (§1) Cells were maintained in DMEM or RPMI supplemented with 10% Fetal Bovine Serum and gentamicin. Cell lines expressing rtTA were kept under Neomycin selection (400 ug/mL). Cell lines expressing dox inducible Nrf2 constructs remained under Hygromycin selection (600 ug/mL). […] Viability in the presence of all compounds was assessed by cell titer glo (Promega #G7570) and trypan blue exclusion on a Countess II automated cell counter (Life Technologies). For clonogenic and low-density assays, cells were stained with Crystal Violet solution (25% Methanol 75% H20). For cell counts after DMF treatment cells were fixed with 4% paraformaldehyde for 15 minutes at 4 C. Cells were then washed in ice cold PBS and then stained with Hoechst DNA stain. Plates were quantified using a Tecan infinite M200 Pro plate reader or a SpectraMax M5 Miroplate reader (Molecular Devices).

KPN cells = test: Viability of KPN (Nrf2 loss) cells under oxidative stress agents; assay type: cell-based, mouse; details: KPN cells treated with oxidative stress agents (BSO, AUR, ERA)
Experimental: as §1

Nrf2 [2] = test: Western blot for Nrf2 after oxidative stress inducer DMF in isogenic KP/KPK cells; assay type: cell-based, mouse; details: control (KP) cells; 6 hour DMF treatment
Source text: To perform in vitro functional characterization of and Keap1, isogenic cell lines were generated from a Kras^LSL-G12D/+; p53^−/− C57B6 GEMM-derived cell line using the CRISPR/Cas9 and sgRNAs against Keap1. LOF of the gene was validated by western blot analysis in basal conditions and in the presence of an oxidative stress inducer, dimethyl fumarate (DMF), which is known to deplete the cellular glutathione pool and induce Nrf2 activation (Sullivan et al., “The Proto-oncometabolite Fumarate Binds Glutathione to Amplify ROS-Dependent Signaling,” Molecular Cell 51:236-248 (2013), which is hereby incorporated by reference in its entirety). It was observed that Nrf2 is induced in control cells in response to 6 hour DMF treatment. Keap1 LOF leads to a robust increase of Nrf2 even in the absence of DMF (FIG. 13).

KPN-ix cell lines = test: BSO dose response in KPN-ix cells with doxycycline inducible GOF-Nrf2; assay type: cell-based, mouse
Experimental: as §1

glutathione (GSH) = test: Glutathione measurement (GSH/GSSG-Glo) after BSO; assay type: cell-based, mouse
Experimental: ROS in cultured cells were measured by incubating […] with 5 μM CM-H2DCFDA (C6827, Life Technologies) for 30 min at 37° C. DCF fluorescence was acquired on the Attune NxT (ThermoFisher) flow cytometer and analyzed using FlowJo software (Tree Star). Reduced (GSH) and oxidized glutathione (GSSG) was measured with a GSH/GSSG-Glo Assay kit (V6611, Promega) for the indicated amount of time.

Nrf2 [3] = details: SFN 10 μM for 6 hr
Experimental: as §1
Cells were lysed in 250 μL ice-cold RIPA buffer (Pierce, #89900) supplemented with 1 × Complete Mini inhibitor mixture (Roche, #11 836 153 001) and mixed on a rotator at 4° C. for 30 minutes. The protein concentration of the cell lysates was quantified using the Bio-Rad DC Protein Assay (Catalog #500-0114). 50-80 μg of total protein was separated on 4-12% Bis-Tris gradient gels (Bio-Rad) by SDS-PAGE and then transferred to nitrocellulose membranes. […]
RNA was collected from cells as before (Papagiannakopoulos et al. (2016, Cell Metab 24, 324-331, doi:10.1016/j.cmet.2016.07.001) with RNeasy plus mini kit (Qiagen), sequenced with X analyzed with YZ. For Real Time qPCR analysis, complementary DNA (cDNA) was synthesized from RNA with the High Capacity cDNA Reverse Transcription Kit (Applied Biosystems #4368814). Genes Slc7a11, Gclc, Hmox1, and Nqo1 were analyzed by quantitative reverse transcription polymerase chain reaction on LightCycler 480 II (Roche). RT qPCR primers (Supplementary Sequences).

KPK cell lines = test: Viability/growth of KPK (Keap1 loss) cell lines compared to KP (cell titer glo, trypan blue, crystal violet); assay type: cell-based, mouse
Experimental: as §1

[4] = test system: KPK-derived subcutaneous and orthotopic tumors; test: CB-839 treatment of KPK-derived subcutaneous and orthotopic tumors in immunodeficient animals; assay type: in vivo, mouse
Experimental: (§2) Animals were treated as before (Davidson et al. 2016, Cell Metab 23:517-528, doi: 10.1016/j.cmet.2016.01.007) with 200 mg/kg CB-839 or vehicle twice a day after tumor establishment phase. The vehicle contained 25% (w/v) hydroxypropyl-β-cyclodextrin in 10 mmol/L citrate (pH 2.0), and CB-839 was formulated at 20 mg/mL for a final dosing volume of 10 mL/kg.
(§3) It was next asked if increased glutamine utilization in KPK cell lines could be a druggable metabolic liability. […] Consistently, a panel of human lung cancer cells containing KEAP1 mutations or GOF mutations in NRF2 were sensitive to glutaminase inhibition while KEAP1 WT cells were largely resistant (FIG. 9C and FIG. 10B). […] To investigate the therapeutic potential of targeting glutaminase in Keap mutant tumors in vivo, KP and KPK cells were transplanted subcutaneously and orthotopically (lung) in immunodeficient animals. Once tumors had established, treatment was initiated with either vehicle or CB-839, an orally bioavailable glutaminase inhibitor in phase I clinical trials for KRAS mutant NSCLC (FIG. 9E).

KP-ix cells = test: Viability counts of KP-ix cells (doxycycline inducible GOF-Nrf2) with CB-839; assay type: cell-based, mouse; details: CB-839 250 nM, 72 hours
Experimental: as §1

KP-derived tumors = test: CB-839 treatment of KP-derived subcutaneous and orthotopic tumors in immunodeficient animals; assay type: in vivo, mouse; details: subcutaneous and orthotopic transplants; 200 mg/kg CB-839 twice a day
Experimental: as §2, §3

T cell = test: Impact of CB839 on T cell function (data not shown); assay type: cell-based
GPD2 = details: in vivo; cited from earlier work
[5] = intraperitoneal, 50 mg/kg daily over 30 days; cited from earlier work

Structure (SMILES): CC(=O)OC[C@H]1O[C@@H]([S-])[C@H](OC(C)=O)[C@@H](OC(C)=O)[C@@H]1OC(C)=O.CCP(CC)CC.[Au+] [auranofin, Auranofin]
genotype-specific sensitivity (cell viability) [1]: distinct genotype-specific sensitivities

Structure (SMILES): CC(=O)N[C@@H](CS)C(=O)O [N-acetyl cysteine, N-acetyl-L-cysteine]
rescue of loss of viability by antioxidants (KPN cells): rescued

Structure (SMILES): COC(=O)/C=C/C(=O)OC [DMF, Dimethyl fumarate]
Nrf2 induction (western blot) (Nrf2 [2]): induced

IC50 of BSO (KPN-ix cell lines; KPN-ix +dox versus -dox, 72 hours): increase
Structure (SMILES): CCCCS(=N)(=O)CCC(N)C(=O)O [BSO, L-Buthionine-sulfoximine]
BSO-mediated loss of viability upon induction of GOF-Nrf2 (KPN-ix cell lines; 72 hours of dox induction): rescued | levels of GSH and viability (glutathione (GSH); KPK compared to KP clones, 100 μM BSO): maintain measurable levels of GSH and viability | GSH pools (glutathione (GSH); KPN clones, after 12 hours of BSO treatment (100 μM)): rapid exhaustion of GSH pools | reduced glutathione (GSH): oxidized glutathione (GSSG) ratio (glutathione (GSH); panel of isogenic cell lines (KP, KPN, KPK)): stark contrast | genotype-specific sensitivity (cell viability) [1]: distinct genotype-specific sensitivities

Structure (SMILES): C[S+]([O-])CCCCN=C=S (racemic) [Sulforaphane, D,L-Sulforaphane]
Nrf2 protein levels and expression of target genes (Nrf2 [3]; KP cells): stabilized Nrf2 protein levels and expression of target genes | Nrf2 protein levels and expression of target genes (Nrf2 [3]; KP cells, listed as SFN): accumulation of Nrf2 occurs only in the KP samples | Nrf2 protein levels and expression of target genes (Nrf2 [3]; KPK or KPN cells, listed as SFN): not further stabilized

Structure (SMILES): Cc1c(C)c2c(c(C)c1O)CCC(C)(C(=O)O)O2 (stereo not shown) [Trolox]
rescue of loss of viability by antioxidants (KPN cells): rescued

Structure (SMILES): O=C(Cc1cccc(OC(F)(F)F)c1)Nc1ccc(CCCCc2nnc(NC(=O)Cc3ccccn3)s2)nn1 [CB-839]
sensitivity to glutaminase inhibitors (KPK cell lines; KPK compared to KP cell lines, 72 hours): far more sensitive | final tumor weights ([4]; 200 mg/kg CB-839 twice a day versus vehicle): smaller final tumor weights | tumor growth over the course of the experiment ([4]; subcutaneous and orthotopic transplants, 200 mg/kg CB-839 twice a day): dramatic stunted growth | sensitivity to CB-839 upon induction of GOF-Nrf2 (KP-ix cells): robust sensitivity | tumor response to treatment (KP-derived tumors): no response | impact on T cell function (T cell): does not negatively impact T cell function

Structure (SMILES): CN(C)C(=N)N=C(N)N [metformin]
GPD2 enzymatic activity (GPD2): inhibits | toxicity [5]: no toxicity

Structure (SMILES): O=CC[C@@H](O)[C@H](O)[C@H](O)CO [2-deoxy-D-glucose]
sensitivity to glycolytic inhibitor (KPK cell lines; KPK compared to KP cells, 5 mM 2DG for 72 h): increased sensitivity
